Data on four compounds can be found in paper PMC7073110, “Molecular Rescue of Dyrk1A Overexpression Alterations in Mice with Fontup® Dietary Supplement: Role of Green Tea Catechins” (International Journal of Molecular Sciences, 2020).

For series [1], the target named is T1, DYRK1A-ΔC (truncated DYRK1A, catalytic domain residues 1–502) (Rattus norvegicus, UniProt Q63470).
T1 construct: catalytic domain (residues 1–502) of rat DYRK1A; 6xHis; made in house; host or cells: Escherichia coli BL21
Description: DYRK1A-ΔC inhibition assay, HPLC/UFLC-based with fluorescent peptide substrate. Type of series: biochemical. As to conditions: for remaining activity at 0.1 µM: read-out: DYRK1A-ΔC Remaining Activity at 0.1 µM; for remaining activity at 1 µM: read-out: DYRK1A-ΔC Remaining Activity at 1 µM; for remaining activity at 100 µM: read-out: DYRK1A-ΔC Remaining Activity at 100 µM; for Effect on DYRK1A-ΔC activity (in words): 0.1–100 µM. The method, then: W. Becker (Aachen University, Aachen, Germany) and subcloned into pET28a plasmid to produce recombinant 6xHis-tagged DYRK1A catalytic domain (DYRK1A-ΔC). The pET28-Dyrk1a-ΔC plasmid was transformed into Escherichia coli cells (BL21) for production and purification of the enzyme. Briefly, transformed bacteria cells were grown at 37 °C for 4 h until OD was between 0.6–0.7 and further grown at 37 °C for 5 h in the presence of 0.5 mM isopropyl β-D-1-thiogalactopyranoside (IPTG). Cells were harvested by centrifugation at 6000× g, 4 °C for 10 min and the pellet was washed with PBS. The pellet was re-suspended in PBS supplemented with protease inhibitors, 1 mg/mL lysozyme and 0.1% Triton X-100. After 30 min incubation at 4 °C, the lysate was subjected to sonication on ice (6 min with pulse on 30 s/ off 30 s) and pelleted at 10,000× g, 4 °C for 30 min. The supernatant was incubated with His-select nickel resin (Sigma, Saint-Quentin Fallavier, France) for 2 h at 4 °C under agitation, and the resin was transferred into a column and washed with Tris-HCl 20 mM, pH 8, with 5 mM imidazole. Proteins were eluted in Tris-HCl 20 mM, pH 8, 300 mM imidazole, and dialyzed overnight against Tris-HCl 50 mM, pH 8, dithiothreitol (DTT) 10 mM, MgCl2 5 mM. Purified proteins were quantified with Bradford’s reagent (BioRad). Purity was assessed by sodium dodecyl sulfate-polyacrylamide gel electrophoresis (SDS-PAGE). Proteins were kept at −80 °C until use.
The fluorescent peptide substrate was derived from the sequence of the human transcription factor FKHR that is a physiological substrate of DYRK1A [46]. […] The enzymatic reaction was started by addition of the substrate and the mixture was incubated at 37 °C for 30 min. […] The peptides were monitored by fluorimetry (excitation at 485 nm, emission at 530 nm) and quantified by integration of the peak absorbance area. A calibration curve established with different known concentrations of peptides was used for quantification. For inhibition studies with green tea catechins, the compounds, dissolved in water, were added at four different concentrations (up to 100 µM) to the well prior to addition of ATP (1 mM final concentration). Determination of the mode of inhibition (competitive/non-competitive) of the compounds was obtained by carrying assays with different concentrations of ATP (200, 400 and 800 µM).

In series [2] the target is T2, DYRK1A native human protein (Homo sapiens, UniProt Q13627).
T2 construct: purchased Thermo Fisher Scientific PV3785
Description: DYRK1A inhibition assay, HPLC-based (native protein PV3785). Type of series: biochemical.

The nature of series [3]: EGCG levels in plasma and brain after oral gavage of FontUp. In kind it is in vivo, mice. Conditions: for concentration at 4 h / Kp at 4 h: male, mouse, two days; for Kp at 4 h: brain/plasma, read-out: Kp (brain concentration/plasma concentration). The method, then:
FontUp® was prepared daily as described above and strongly mixed at room temperature. Male mice received an oral gavage of three different doses (25, 50 and 75 mg/Kg), in the morning and in the evening for two or eight days. The last dose was administered 4 h before sacrifice.
Blood samples were obtained by retro-orbital sinus sampling with heparinized capillaries, collected into tubes containing a 1/10 volume of 3.8% sodium citrate, and immediately placed on ice. Plasma was isolated by centrifugation at 2500× g for 15 min at 4 °C. 80 µL of plasma samples were mixed with 20 µL 0.2 M NaH2PO4 solution containing 20% ascorbic acid and 0.1% EDTA, pH 3.6 for polyphenol assays. Plasma samples were store at −80 °C until use. Brains and hearts were harvested, snap-frozen in liquid nitrogen, and stored at −80 °C until use. Plasma total hcy, defined as the total concentration of hcy after quantitative reductive cleavage of all disulfide bonds, and total GSH were assayed using a fluorometric HPLC method previously described. ALT concentrations were determined using the Alanine Aminotransferase Activity Assay Kit (Sigma-Aldrich, Saint-Quentin Fallavier, France), based on the pyruvate generated. Plasma galectin-3 (Abcam ELISA kit, Paris, France), and fibronectin (Abcam ELISA kit) were assessed using sandwich ELISA. After removal of unbound conjugates, bound enzyme activity was assessed by use of a chromogenic substrate for measurement at 450 nm by a microplate reader (Flex Station 3, Molecular Devices, Ltd., Wokhingham, UK).
Brains were homogenized with 1.5 mm diameter beads for 2 min at 25 frequencies/second using a tissue lyser II (Qiagen, Hilden, Germany). The homogenates were centrifuged at 13,000 rpm for 10 min at 4 °C. The supernatants were transferred in a clear tube and mixed with the preservative solution as mentioned at one-tenth of its volume.
The catechin contents was analyzed as previously reported. Two hundred microliters of plasma or brain samples homogenates were thawed at room temperature and 50 µL of 0.4 M sodium phosphate buffer (pH 7.4) were added. The sample was mixed with 10 µL of beta-glucuronidase (250 units) and 10 µL of sulfatase (10 units) and then incubated at 37 °C for 45 min. Then the plasma or brain samples were partitioned with ethyl acetate in the ratio of 1:1 (v/v). The liquid-liquid extraction was carried out three times for 1 min by shaking on vortex and the organic phases (upper phases) were pooled. The combined ethyl acetate phases were evaporated under vacuum to dryness. The dry residue was re-dissolved in 50% methanol in water and was kept at −80 °C before HPLC analysis. HPLC was performed with a LC Prominence (Shimadzu, Kyoto, Japan) coupled with a Coulochem III electrode array detector (ESA Inc., Bedford, MA, USA) using a reverse- Interchrom C18 column (3 µm, 150 × 2.1 mm) eluted with the eluent described below at a flow rate of 0.35 mL/min at 45 °C. HPLC analysis was performed using a linear gradient system with mobile phase A (20 mM NaH2PO4) and mobile phase B (acetonitrile). Linear gradient elution was performed as follows: 100% mobile phase A for 10 min; 55% mobile phase A for 30 min and return to 100% mobile phase A for 15 min. The eluent was monitored using the Coulochem-III electrochemical detector (5011 analytical cell) with potential settings at 600 mV (E1) and 700 mV (E2). Quantification was carried out using the external standard method. Catechin quantification was performed after data acquisition using an LC Solution (Shimadzu).

A further series has as its system DYRK1A. As to conditions: cited from earlier work.
Where [4] appears, read: 0.1 µM compound, 1 mM ATP, 60 µM peptide, normalized to no inhibitor.
[5] abbreviates: 1 µM compound, 1 mM ATP, 60 µM peptide, normalized to no inhibitor.
Setting [6] is: 10 µM compound, 1 mM ATP, 60 µM peptide, normalized to no inhibitor, read-out: DYRK1A-ΔC Remaining Activity at 10 µM.
Setting [7] is: 100 µM compound, 1 mM ATP, 60 µM peptide, normalized to no inhibitor.

Each structure is given as a SMILES string. Like-named read-outs stand apart in the source and are kept apart here.

On to `Oc1cc(O)c2c(c1)O[C@H](c1ccc(O)c(O)c1)[C@H](O)C2` [EC, epicatechin], for which the remaining activity at 0.1 µM in series [1] (setting [4]) was found to be 89.2 ± 9.5%. Moreover, the remaining activity at 1 µM in series [1] (setting [5]) stood at 84.1 ± 9.1%. Besides, the remaining activity at 10 µM in series [1] (setting [6]) was 95.6 ± 8.1%. The remaining activity at 100 µM in series [1] (setting [7]) worked out at 88.7 ± 8.2%. For the same compound, the “Effect on DYRK1A-ΔC activity (in words)” value in series [1] (1 mM ATP) was “No effect”.
For `O=C(O[C@@H]1Cc2c(O)cc(O)cc2O[C@@H]1c1ccc(O)c(O)c1)c1cc(O)c(O)c(O)c1` [ECG, epicatechin gallate], the remaining activity at 0.1 µM in series [2] (0.1 µM compound, 1 mM ATP, 60 µM peptide, native DYRK1A) amounted to 69.9 ± 3.9%; in series [1] (setting [4]), 78.1 ± 3.6%. Further, the remaining activity at 1 µM in series [2] (1 µM compound, 1 mM ATP, 60 µM peptide, native DYRK1A) was 12.5 ± 2.4%; in series [1] (setting [5]) it was 27.1 ± 7.3%. Further, the remaining activity at 10 µM stood at 9.4 ± 1.4% in series [2] (10 µM compound, 200 µM ATP, up to 60 min at 37 °C, read-out: DYRK1A Remaining Activity with 200 µM ATP); 7 ± 1.1% in series [2] (10 µM compound, 400 µM ATP, up to 60 min at 37 °C, read-out: DYRK1A Remaining Activity with 400 µM ATP); 5.4 ± 0.9% in series [2] (10 µM compound, 800 µM ATP, up to 60 min at 37 °C, read-out: DYRK1A Remaining Activity with 800 µM ATP); 4.6 ± 0.9% in series [2] (10 µM compound, 1 mM ATP, 60 µM peptide, native DYRK1A, read-out: DYRK1A Remaining Activity at 10 µM); 8 ± 0.8% in series [1] (10 µM compound, 200 µM ATP, up to 60 min at 37 °C, read-out: DYRK1A-ΔC Remaining Activity With 200 µM ATP); 6.5 ± 0.9% in series [1] (10 µM compound, 400 µM ATP, up to 60 min at 37 °C, read-out: DYRK1A-ΔC Remaining Activity with 400 µM ATP). Further, the remaining activity at 10 µM in series [1] (10 µM compound, 800 µM ATP, up to 60 min at 37 °C, read-out: DYRK1A-ΔC Remaining Activity with 800 µM ATP) stood at 4 ± 0.5%; in series [1] (setting [6]) it was 11.8 ± 4.2%. Besides, the remaining activity at 100 µM was 2.3 ± 0.5% in series [2] (100 µM compound, 1 mM ATP, 60 µM peptide, native DYRK1A) and 7.6 ± 2.3% in series [1] (setting [7]). In series [2] (DYRK1A-ΔC and DYRK1A, 10 µM compound, ATP 200–800 µM), the “Mode of inhibition of DYRK1A against ATP” value was “noncompetitive inhibitor”.
For `Oc1cc(O)c2c(c1)O[C@H](c1cc(O)c(O)c(O)c1)[C@H](O)C2` [EGC, epigallocatechin], in series [1] (setting [4]), the remaining activity at 0.1 µM was found to be 99.5 ± 3.2%. Besides, the remaining activity at 1 µM in series [1] (setting [5]) was determined as 93.6 ± 2.6%. Besides, the remaining activity at 10 µM in series [1] (setting [6]) worked out at 80.6 ± 11.4%. Also, the remaining activity at 100 µM in series [1] (setting [7]) is 81.4 ± 12.8%. Besides, the “Effect on DYRK1A-ΔC activity (in words)” value in series [1] (1 mM ATP) was “No effect”.
`O=C(O[C@@H]1Cc2c(O)cc(O)cc2O[C@@H]1c1cc(O)c(O)c(O)c1)c1cc(O)c(O)c(O)c1` [EGCG, epigallocatechin-3-gallate]: the “Crossing of the blood-brain barrier (in words)” value in series [3] (WT and TgBACDyrk1A mice, FontUp D2, two days, from Kp) was “had crossed the BBB”. The concentration at 4 h came out at 50 nM in series [3] (TgBACDyrk1A, brain, 50 mg/Kg, TgDyrk1A mice, FontUp D2 oral gavage, n = 5, p < 0.07); 36 ± 11 nM in series [3] (TgBACDyrk1A, plasma, 50 mg/Kg, TgDyrk1A mice, FontUp D2 oral gavage, n = 5); 25 ± 7 nM in series [3] (brain, 50 mg/Kg, WT mice, FontUp D2 oral gavage, n = 5); 65 ± 23 nM in series [3] (plasma, 50 mg/Kg, WT mice, FontUp D2 oral gavage, n = 5); 104 ± 11.2 nM in series [3] (plasma, WT mice, FontUp high dose D3 (75 mg/Kg) oral gavage, last dose 4 h before sacrifice); 63 ± 10.8 nM in series [3] (plasma, WT mice, FontUp intermediate dose D2 (50 mg/Kg) oral gavage, last dose 4 h before sacrifice). The compound further had a concentration at 4 h in series [3] (plasma, WT mice, FontUp low dose D1 (25 mg/Kg) oral gavage, last dose 4 h before sacrifice) of 28 ± 0.0003 nM. The Kp at 4 h in series [3] (TgBACDyrk1A, 50 mg/Kg, TgDyrk1A mice, FontUp D2 oral gavage) was 3.6 ± 0.82; in series [3] (50 mg/Kg, WT mice, FontUp D2 oral gavage) it was 1.2 ± 0.33. In addition, the remaining activity at 0.1 µM in series [1] stood at 71.3 ± 4.6%. Further, the remaining activity at 1 µM in series [1] came out at 16.3 ± 2.3%. The remaining activity at 10 µM in series [1] (read-out: DYRK1A-ΔC Remaining Activity at 10 µM) came to 6.4 ± 1.1%. The remaining activity at 100 µM in series [1] was found to be 3.5 ± 0.8%. In the series with DYRK1A (against both substrates), the “Mode of inhibition of DYRK1A” value is reported as “non-competitive inhibitor”. Also, the IC50 in the series on DYRK1A (read-out: IC50 to inhibit DYRK1A activity) was 330 nM.
